According to patent publication US8017612B2, “Piperazine compound and use thereof as a HCV polymerase inhibitor” (priority 2006, dated 2011):
Where a name gives a salt, the structure may show the parent alone.

Key:
[1] = target: T1, HCV polymerase (NS5B) type 1b (Hepatitis C virus genotype 1b, UniProt P26663); assay: Assay of enzyme (HCV polymerase) inhibitory activity, type 1b enzyme; type: biochemical, HCV BK strain (type 1b); conditions: HCV polymerase inhibitory activity (IC50), 1b, type 1b enzyme 0.5 μg/ml, 25° C., 60 min
T1 construct: a region encoding NS5B (J Virol 1991 March, 65(3), 1105-13, 544 amino acids after deletion of 47 amino acids on the C-terminal); 6xHis (C); made in house; host or cells: Escherichia coli
Outline: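 Rxn: NS5B 1b (BK, ΔC47, His6) 0.5 μg/ml; substrate RNA 5 μg/ml; ATP/GTP/CTP 50 μM, UTP 2 μM + [5,6-3H]UTP; 20 mM Tris pH 7.5, 5 mM MgCl2, 50 mM NaCl, 1 mM EDTA/DTT. 25 °C, 60 min. Stop with TCA/pyrophosphate, filter, scintillation count; IC50 vs. untreated.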

[2] = target: T2, HCV polymerase (NS5B) type 1a (Hepatitis C virus genotype 1a, UniProt P26664); assay: Assay of enzyme (HCV polymerase) inhibitory activity, type 1a enzyme; type: biochemical, HCV type 1a (cloned from the blood of patients); conditions: HCV polymerase inhibitory activity (IC50), 1a, type 1a enzyme 1.5 μg/ml, 25° C., 60 min
T2 construct: made in house; host or cells: Escherichia coli (by the 'similar method' of the 1b enzyme)
Outline: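 NS5B Δ47 C-term His6 (type 1a, 1.5 μg/ml); substrate RNA 5 μg/ml; ATP/GTP/CTP 50 μM, UTP 2 μM + [5,6-3H]UTP; Tris pH 7.5, MgCl2 5 mM; 25° C, 60 min. TCA/pyrophosphate stop, GF/B filter, scintillation. IC50 vs no-compound control.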

In the case of `CCCc1ccc(S(=O)(=O)N2CCN(c3nc(C)c(C(=O)OC)s3)C[C@@H]2C(=O)NCc2ccc(C(C)C)cc2)cc1` [Example 297, 2-[(R)-3-(4-isopropyl-benzylcarbamoyl)-4-(4-propyl-benzenesulfonyl)-piperazin-1-yl]-4-methyl-thiazole-5-carboxylic acid methyl ester], the IC50 [1] is reported as under 100 nM and the IC50 [2] is reported as under 100 nM.

`CCCc1ccc(S(=O)(=O)N2CCN(c3nc(C(=O)O)cs3)C[C@@H]2C(=O)NCc2ccc(C(C)C)cc2)cc1` [Example 298, 2-[(R)-3-(4-isopropyl-benzylcarbamoyl)-4-(4-propyl-benzenesulfonyl)-piperazin-1-yl]-thiazole-4-carboxylic acid] was tested, and the IC50 [1] was 100 to 1000 nM and the IC50 [2] was 100 to 1000 nM.

`CCCc1ccc(S(=O)(=O)N2CCN(c3nc(C)c(C(=O)O)s3)C[C@@H]2C(=O)NCc2ccc(C(C)C)cc2)cc1` [Example 299, 2-[(R)-3-(4-isopropyl-benzylcarbamoyl)-4-(4-propyl-benzenesulfonyl)-piperazin-1-yl]-4-methyl-thiazole-5-carboxylic acid] gave an IC50 [1] of under 100 nM and an IC50 [2] of under 100 nM.

Work on `CC(C)c1ccc(CNC(=O)[C@H]2CN(C(=O)Nc3ccncn3)CCN2S(=O)(=O)c2ccc(C(F)(F)F)cc2)cc1` [Example 300, (R)-4-(4-trifluoromethyl-benzenesulfonyl)-piperazine-1,3-dicarboxylic acid 3-(4-isopropyl-benzylamide) 1-pyrimidin-4-ylamide] yielded an IC50 [1] of under 100 nM and an IC50 [2] of under 100 nM.

With `CC(C)c1ccc(CNC(=O)[C@H]2CN(C(=O)Nc3ccnc(C(=O)OC(C)(C)C)c3)CCN2S(=O)(=O)c2ccc(C(F)(F)F)cc2)cc1` [Example 301, 4-{[(R)-3-(4-isopropyl-benzylcarbamoyl)-4-(4-trifluoromethyl-benzenesulfonyl)-piperazine-1-carbonyl]-amino}-pyridine-2-carboxylic acid tert-butyl ester] the IC50 [1] was under 100 nM and the IC50 [2] was under 100 nM.

With `COC(=O)c1cnc(N2CCN(S(=O)(=O)c3ccc(C(F)(F)F)cc3)[C@@H](C(=O)NCc3ccc(C(C)C)cc3)C2)s1` [Example 302, 2-[(R)-3-(4-isopropyl-benzylcarbamoyl)-4-(4-trifluoromethyl-benzenesulfonyl)-piperazin-1-yl]-thiazole-5-carboxylic acid methyl ester] the IC50 [1] was under 100 nM and the IC50 [2] was 100 to 1000 nM.

`COC(=O)c1ccc(N2CCN(S(=O)(=O)c3ccc(C(F)(F)F)cc3)[C@@H](C(=O)NCc3ccc(C(C)C)cc3)C2)nc1` [Example 303, 6-[(R)-3-(4-isopropyl-benzylcarbamoyl)-4-(4-trifluoromethyl-benzenesulfonyl)-piperazin-1-yl]-nicotinic acid methyl ester] showed an IC50 [1] of under 100 nM and an IC50 [2] of under 100 nM.

`CC(C)c1ccc(CNC(=O)[C@H]2CN(CCc3ccncc3)CCN2S(=O)(=O)c2ccc(C(F)(F)F)cc2)cc1` [Example 304, (R)-4-(2-pyridin-4-yl-ethyl)-1-(4-trifluoromethyl-benzenesulfonyl)-piperazine-2-carboxylic acid 4-isopropyl-benzylamide] showed an IC50 [1] of 100 to 1000 nM and an IC50 [2] of 100 to 1000 nM.

Work on `CC(=O)N1CCN(S(=O)(=O)c2ccc(OC(F)(F)F)c(C(=O)O)c2)[C@@H](C(=O)NCc2ccc(C(C)C)cc2)C1` [Example 305, 5-[(R)-4-acetyl-2-(4-isopropyl-benzylcarbamoyl)-piperazine-1-sulfonyl]-2-trifluoromethoxy-benzoic acid] yielded an IC50 [1] of under 100 nM and an IC50 [2] of 100 to 1000 nM.

`CC(=O)N1CCN(S(=O)(=O)c2ccc3c(c2)OC(F)(F)C(F)(F)O3)[C@@H](C(=O)NCc2ccc(C(C)C)cc2)C1` [Example 306, (R)-4-acetyl-1-(2,2,3,3-tetrafluoro-2,3-dihydro-benzo[1,4]dioxine-6-sulfonyl)-piperazine-2-carboxylic acid 4-isopropyl-benzylamide] showed an IC50 [1] of 100 to 1000 nM and an IC50 [2] of 100 to 1000 nM.

`CC(=O)N1CCN(S(=O)(=O)c2ccc3c(c2)N(C)CCC3)[C@@H](C(=O)NCc2ccc(C(C)C)cc2)C1` [Example 307, (R)-4-acetyl-1-(1-methyl-1,2,3,4-tetrahydro-quinoline-7-sulfonyl)-piperazine-2-carboxylic acid 4-isopropyl-benzylamide] gave an IC50 [1] of under 100 nM and an IC50 [2] of 100 to 1000 nM.

With `CC(C)c1ccc(CNC(=O)[C@H]2CN(C(=O)C(N)=O)CCN2S(=O)(=O)c2ccc(C(F)(F)F)cc2)cc1` [Example 308, (R)-4-aminooxalyl-1-(4-trifluoromethyl-benzenesulfonyl)-piperazine-2-carboxylic acid 4-isopropyl-benzylamide] the IC50 [1] was over 1000 nM and the IC50 [2] was over 1000 nM.

`CCOC(=O)Cc1nnn(CC(=O)N2CCN(S(=O)(=O)c3ccc(C(F)(F)F)cc3)[C@@H](C(=O)NCc3ccc(C(C)C)cc3)C2)n1` [Example 309, (2-{2-[(R)-3-(4-isopropyl-benzylcarbamoyl)-4-(4-trifluoromethyl-benzenesulfonyl)-piperazin-1-yl]-2-oxo-ethyl}-2H-tetrazol-5-yl)-acetic acid ethyl ester] gave an IC50 [1] of under 100 nM and an IC50 [2] of under 100 nM.

With `CC(C)c1ccc(CNC(=O)[C@H]2CN(C(=O)Cn3nnc(CC(=O)O)n3)CCN2S(=O)(=O)c2ccc(C(F)(F)F)cc2)cc1` [Example 310, (2-{2-[(R)-3-(4-isopropyl-benzylcarbamoyl)-4-(4-trifluoromethyl-benzenesulfonyl)-piperazin-1-yl]-2-oxo-ethyl}-2H-tetrazol-5-yl)-acetic acid] the IC50 [1] was under 100 nM and the IC50 [2] was 100 to 1000 nM.

Work on `CCOC(=O)Cc1nnnn1CC(=O)N1CCN(S(=O)(=O)c2ccc(C(F)(F)F)cc2)[C@@H](C(=O)NCc2ccc(C(C)C)cc2)C1` [Example 311, (1-{2-[(R)-3-(4-isopropyl-benzylcarbamoyl)-4-(4-trifluoromethyl-benzenesulfonyl)-piperazin-1-yl]-2-oxo-ethyl}-1H-tetrazol-5-yl)-acetic acid ethyl ester] yielded an IC50 [1] of 100 to 1000 nM and an IC50 [2] of 100 to 1000 nM.

Work on `CC(C)c1ccc(CNC(=O)[C@H]2CN(C(=O)Cn3nnnc3CC(=O)O)CCN2S(=O)(=O)c2ccc(C(F)(F)F)cc2)cc1` [Example 312, (1-{2-[(R)-3-(4-isopropyl-benzylcarbamoyl)-4-(4-trifluoromethyl-benzenesulfonyl)-piperazin-1-yl]-2-oxo-ethyl}-1H-tetrazol-5-yl)-acetic acid] yielded an IC50 [1] of 100 to 1000 nM and an IC50 [2] of over 1000 nM.

With `CC(C)c1ccc(CNC(=O)[C@H]2CN(C(=N)N)CCN2S(=O)(=O)c2ccc(C(F)(F)F)cc2)cc1` [Example 313, (R)-4-carbamimidoyl-1-(4-trifluoromethyl-benzenesulfonyl)-piperazine-2-carboxylic acid 4-isopropyl-benzylamide hydrochloride] the IC50 [1] was under 100 nM and the IC50 [2] was under 100 nM.

In the case of `CC(C)c1ccc(CNC(=O)[C@H]2CN(C(=O)Nc3ccnc(C(=O)O)c3)CCN2S(=O)(=O)c2ccc(C(F)(F)F)cc2)cc1` [Example 314, 4-{[(R)-3-(4-isopropyl-benzylcarbamoyl)-4-(4-trifluoromethyl-benzenesulfonyl)-piperazine-1-carbonyl]-amino}-pyridine-2-carboxylic acid hydrochloride], the IC50 [1] is reported as 100 to 1000 nM and the IC50 [2] is reported as 100 to 1000 nM.

`CC(C)c1ccc(CNC(=O)[C@H]2CN(c3ncc(C(=O)O)s3)CCN2S(=O)(=O)c2ccc(C(F)(F)F)cc2)cc1` [Example 315, 2-[(R)-3-(4-isopropyl-benzylcarbamoyl)-4-(4-trifluoromethyl-benzenesulfonyl)-piperazin-1-yl]-thiazole-5-carboxylic acid] showed an IC50 [1] of under 100 nM and an IC50 [2] of 100 to 1000 nM.
